Experimental data published in US12458809B2, “Method and system of using plasma discharge tube for sensitization of cancer cells” (The George Washington University, priority 2019, dated 2025).

Key:
[1] = test system: U87 glioblastoma cells; assay: MTT cell viability assay, U87 glioblastoma cells, TMZ with or without plasma discharge tube electro-magnetic field; assay type: cell-based, human; settings: for inhibition of the growth of U87 cells: then 180 μM TMZ
Description: (§1) In one experiment conducted using the test system 10 in FIGS. 1A-1B, human glioblastoma cancer cell lines U87 and A172 as well as […] E6/E7 were provided from the ATCC (City of Manassas, VA), and were grown in Dulbecco's Modified Eagle Medium (Gibco) supplemented with 10% fetal bovine serum (Atlanta Biologicals) and 1% penicillin-streptomycin solution (Invitrogen) under standard cell culture conditions (humidified atmosphere with 5% CO2 at 37° C.). After one passage, 10,000 cells in 100 μL medium were seeded into 96-well plates such as the plate 134 in FIG. 1A. The cells were cultured for 24 hours before the experiment was performed to ensure proper cell attachment and stability.
(§2) Cell viability was analyzed by using an MTT assay available from Sigma-Aldrich, which is a colorimetric assay for analyzing the cell metabolic activity. The MTT protocol is based on NAD(P)H-dependent cellular oxidoreductases, which reduces the water-soluble MTT ((3-(4,5-dimethylthiazol-2-yl)-2,5-diphenyltetrazolium bromide) to an insoluble formazan product. Cells with active metabolism can transform MTT into formazan; however, dead cells cannot transform MTT into formazan and will not show detectable signal. The measured absorbance at OD 590 nm is proportional to the number of viable cells.
(§3) Following treatment with an electro-magnetic field generated from the example plasma tube, the cells were cultured for 72 hours. A total of 100 μL MTT solution (7 mg Thiazolyl Blue Tetrazolium Blue in 10 ml DMEM) was added to each well. Cells were cultured for an additional 3 hours at 37° C., and then the MTT solution was aspirated and a 100 μL solvent was added to dissolve the formazan crystals. The result was recorded with a Synergy H1 Hybrid Multi-Mode Microplate Reader at 570 nm. For each condition (treatment time, voltage, drug concentration), the experiments were performed in triplicates and were repeated independently 3 times.
In this example, four different experimental cell groups were used. The first experimental group was the control group. For each well of the plates for the control group, the cell culture media was removed before the treatment applied to the other experimental groups. After the treatment was applied to the other experimental groups, 100 μL, fresh cell culture media for each well was added to the cells of the control group.
The second experimental group is the tube-only group. For the tube-only group, the cell culture media was removed before the treatment as well. After that, the cells were treated by placing the plate 134 on the side of the discharge tube 100 in FIG. 1A, with a distance of 1 and 5 mm between the plate 134 and the tube 100. The cells in the plate were exposed to the electro-magnetic field for 1, 4 and 7 minutes. 100 μL fresh cell culture media for each well was added to the cells after the treatment.
The third experiment group is the drug-only group. For the drug-only group, the cell culture media was removed before the treatment via electro-magnetic field applied to the other experimental groups. After the treatment of the other groups, 100 μL fresh cell culture media with 180, 250, 320 μM of TMZ for each well was added to the cells.
The last experimental group is a combination group. For the combination group, the cell culture media was removed before the treatment as well. Then, the cells were treated by placing the plate 134 on the side of the discharge tube 100 at a distance of 1 and 5 mm. The electro-magnetic field was applied for 1, 4 and 7 minutes. Following the treatment, 100 μL, fresh cell culture media with 180, 250, and 320 μM of TMZ for each well was added to the cells.

[2] = test system: A172 glioblastoma cells; assay: MTT cell viability assay, A172 glioblastoma cells, TMZ with or without plasma discharge tube electro-magnetic field; assay type: cell-based, human
Description: as §1, §2, §3
In this example, four different experimental cell groups were used. The first experimental group was the control group. […]

[3] = test system: hTERT/E6/E7 cells; assay: MTT cell viability assay, non-cancerous hTERT/E6/E7 cells, TMZ with or without plasma discharge tube electro-magnetic field; assay type: cell-based; settings: after a single 7-minute treatment with discharge tube, E6/E7 non-tumor cell line
Description: as §1
as §2, with “cells. […]” for “cells.”

Cn1nnc2c(C(N)=O)ncn2c1=O [TMZ, Temozolomide]
inhibition of the growth of U87 cells (killing effect) ([1]; 1, 4 or 7 minute electro-magnetic field exposure at 1 mm, then 320 μM TMZ): ~80% | inhibition of the growth of U87 cells ([1]; 1 minute electro-magnetic field exposure): 24% | inhibition of the growth of U87 cells ([1]; 4 minute electro-magnetic field exposure): 38% | inhibition of the growth of U87 cells ([1]; 7 minute electro-magnetic field exposure): 72% | increase in U87 cell death compared with non-cancerous cells ([1]; 7 minutes electro-magnetic field exposure prior to TMZ treatment (FIG. 7)): 43% | inhibition at 180 µM ([1]; Homo sapiens, U-87 MG, 72 h, 180 μM TMZ only, no electro-magnetic field, 72 h, read-out: growth inhibition / cell death of U87 cells): 21% | higher cell death in U87 cells compared to E6/E7 cells ([1]; TMZ-only treatment (FIG. 7)): 12% | increase of anti-cancer efficacy of TMZ (factor) ([1]; after a single 7-minute treatment with discharge tube, U87): > 2 | killing effect on U87 cells ([1]; electro-magnetic field exposure at 5 mm (so in the source); FIG. 4E) plus TMZ): 60% | reduction of cell viability of A172 cells ([2]; 7 minutes electro-magnetic field exposure at 1 mm, then 250 μM TMZ): 76% | inhibition at 250 µM ([2]; Homo sapiens, A 172, 250 μM TMZ, read-out: cell growth inhibition of A172 cells): 23% | increase of anti-cancer efficacy of TMZ (factor) ([2]; after a single 7-minute treatment with discharge tube, A172): > 2 | increase of anti-cancer efficacy of TMZ [3]: no significant effect
